From patent publication US20250206751A1, “HETEROCYCLIC COMPOUND FOR INDUCING DEGRADATION OF G12D MUTANT KRAS PROTEIN” (Astellas Pharma Inc., priority 2022, published 2025)

Legend:
[1] = tested on: phosphorylation of threonine 202 (Thr202) and tyrosine 204 (Tyr204) of ERK; assay: ERK phosphorylation inhibitory effect by Cell ELISA in AsPC-1 (Test Example 2); assay type: cell-based, human; conditions: Homo sapiens, ASPC1, AsPC-1 cells, cultured overnight with compound; 1 μM trametinib taken as 0%
Experimental: Test Example 2: Evaluation of ERK Phosphorylation Inhibitory Effect on Human G12D Mutant KRAS-Positive Pancreatic Cancer Line AsPC-1
The ERK phosphorylation inhibitory effect of test compounds was evaluated by measuring phosphorylation of threonine 202 (Thr202) and tyrosine 204 (Tyr204) of ERK located downstream of the KRAS signal by Cell ELISA.
AsPC-1 cells were seeded on 384-well plates at 36 μL/well to give 2.0×10^4 cells per well. As for the cell culture conditions, RPMI 1640 medium containing 10% fetal bovine serum was used in the presence of 5% CO2 at 37° C.
The next day, the test compounds (10 points having final concentrations in the range of 10 μM to 0.3 nM), trametinib (MEK inhibitor) of a final concentration of 1 μM as positive control and DMSO, which was the solvent for the test compounds, as negative control were diluted 100-fold with a fresh medium and were added at 4 μL per well. The cells were cultured overnight. After culturing, 30% glyoxal solution (40% glyoxal [from Nacalai Tesque] was diluted with PBS) was quickly added at 30 μL per well, and the plate was allowed to stand for 60 minutes at room temperature to thus immobilize the cells. Then, the plate was centrifuged to remove the supernatant (using a centrifugal dehydrator machine, the supernatant was removed by the same method hereinafter), and 0.1% Triton X-100-containing PBS was added at 20 μL per well. After allowing to stand for 10 minutes at room temperature, the supernatant was removed, and the same operation was further repeated. Next, 0.5% SDS-containing PBS was added at 20 μL per well, and after allowing to stand at room temperature for 30 minutes, the supernatant was removed. Subsequently, blocking solution (Intercept Blocking Buffer) was added at 20 μL per well, and the plate was allowed to stand for 1 hour at room temperature. The supernatant was removed, and an ERK (Thr202/Tyr204) phosphorylation antibody (Phospho-p44/42 MAPK (Erk 1/2) (Thr202/Tyr204) (D13.14.4E) XP Rabbit mAb; from Cell Signaling Technology) diluted 2,500-fold with blocking solution was added at 15 μL per well as a primary antibody. The plates were allowed to stand at 4° C. overnight.
The next day, the supernatant was removed. 0.05% Tween-20 (from Thermo Fisher Scientific)-containing PBS was added at 50 μL per well, and the supernatant was removed to thus wash each well. The washing was performed three times in total. After washing, Goat anti-Rabbit IgG H&L (IRDye 800CW) diluted 1,000-fold with blocking solution was added at 15 μL per well as a secondary antibody, and the plates were allowed to stand for 1 hour at room temperature. The supernatant was removed, and each well was washed three times with 0.05% Tween-20-containing PBS in the same manner as after the primary antibody reaction. After removing the supernatant, the plates were dried with air at room temperature for 3 hours or more, and the 800-nm fluorescent signals were measured with Aerius.
With the signaling value at the time of addition of DMSO taken as 100% and with the signaling value at the time of addition of 1 μM trametinib taken as 0%, the 50% inhibitory concentration values (IC50) were calculated by Sigmoid-Emax nonlinear regression analysis.

KRAS G12D protein = molecular target: T1, KRAS G12D protein (Homo sapiens, UniProt P01116, G12D); assay: KRAS degradation activity by Cell ELISA in AsPC-1 (Test Example 1); assay type: cell-based; conditions: AsPC-1 cells, cultured overnight with compound, corrected with β-actin, read-out: DC50 (50% degradation concentration of the amounts of KRAS)
T1 construct: host or cells: AsPC-1
Experimental: Test Example 1: Evaluation of KRAS Degradation Activity on Human G12D Mutant KRAS-Positive Pancreatic Cancer Line AsPC-1 (CRL-1682; ATCC)
The KRAS degradation activity of test compounds was evaluated by measuring the expression levels of KRAS G12D protein by Cell ELISA.
AsPC-1 cells were seeded at 20 μL per well on 384-well plates (from Greiner bio-one) to give 2.0×10^4 cells per well. As for the cell culture conditions, RPMI 1640 (from Sigma-Aldrich) medium containing 10% fetal bovine serum (from Cytiva) was used in the presence of 5% CO2 at 37° C.
The next day, the test compounds (10 points having final concentrations in the range of 10 μM to 0.3 nM) and DMSO (from FUJIFILM Wako Pure Chemical Corporation), which was the solvent for the test compounds, as a negative control were diluted 500-fold with a fresh medium and were added at 20 μL per well. The cells were cultured overnight.
The next day, the culture supernatant was removed, and 4% paraformaldehyde phosphate buffer (from FUJIFILM Wako Pure Chemical Corporation) was added at 20 μL per well. The plates were allowed to stand for 30 minutes at room temperature to thus immobilize the cells. Then, the supernatant was removed, and 0.1% Triton X-100 (from Amersham Biosciences)-containing Phosphate buffered saline (PBS; from FUJIFILM Wako Pure Chemical Corporation) was added at 20 μL per well. After allowing to stand for 10 minutes at room temperature, the supernatant was removed. PBS was added at 25 μL per well, and the supernatant was removed to thus wash each well. The washing was performed twice in total. Next, the supernatant was removed, and 0.5% sodium dodecyl sulfate (SDS; from Invitrogen)-containing PBS was added at 20 μL per well. After allowing to stand at room temperature for 10 minutes, the supernatant was removed by a centrifugal operation (using a centrifugal dehydrator machine, the supernatant was removed by the same method hereinafter). PBS was added at 25 μL per well, and the supernatant was removed to thus wash each well. The washing was performed twice in total. The supernatant was removed, and blocking solution (Intercept Blocking Buffer; from Li-COR Biosciences) was added at 20 μL per well. After allowing to stand for 30 minutes at room temperature, the supernatant was removed, and a solution obtained by diluting anti-β-actin antibody (Anti-beta Actin antibody [mAbcam 8226]-Loading Control; from abcam) 1,000-fold with blocking solution and a solution obtained by diluting anti-Ras (G12D Mutant Specific) antibody (Ras (G12D Mutant Specific) (D8H7) Rabbit mAb #14429; from Cell Signaling Technology) and anti-β-actin antibody (from abcam) 1,000-fold with blocking solution were respectively added to positive control wells and the other wells at 20 μL per well as a primary antibody. The plate was allowed to stand overnight at 4° C.
The next day, the supernatant was removed. PBS was added at 25 μL per well, and the supernatant was removed to thus wash each well. The washing was performed twice in total. The supernatant was removed, and a solution obtained by diluting Donkey anti-Mouse IgG H&L (IRDye 680RD) (from Li-COR Biosciences) and Goat anti-Rabbit IgG H&L (IRDye 800CW) (from Li-COR Biosciences) 1,000-fold with blocking solution was added at 20 μL per well as a secondary antibody. After allowing to stand for 1 hour at room temperature, the supernatant was removed. PBS was added at 25 μL per well, and the supernatant was removed to thus wash each well. The washing was performed twice in total. After removing the supernatant, the plate was dried with air at room temperature for 2 hours or more, and the 700 nm and 800 nm fluorescent signals were measured with Aerius (from Li-COR Biosciences). […]

[2] = tested on: human G12D mutant KRAS-positive pancreatic cancer line AsPC-1; assay: Non-anchorage-dependent cell growth inhibition, spheroid 3D cell culture (Test Example 3); assay type: cell-based; conditions: Homo sapiens, ASPC1, 144 h, AsPC-1 spheroid 3D culture, 6 days, CellTiter Glo 2.0
Experimental: Test Example 3: Evaluation of Non-Anchorage-Dependent Cell Growth Inhibitory Effect on Human G12D Mutant KRAS-Positive Pancreatic Cancer Line AsPC-1
The non-anchorage-dependent cell growth inhibitory effect of test compounds was evaluated by spheroid 3D cell culture.
AsPC-1 cells were seeded on low-cell-adhesive round bottom 384-well plates (PrimeSurface: from Sumitomo Bakelite) at 36 μL/well to give 5×10^2 cells per well. As for the cell culture conditions, RPMI 1640 medium containing 10% fetal bovine serum was used in the presence of 5% CO2 at 37° C.
The next day, the test compounds (10 or 6 points having final concentrations in the range of 10 μM to 0.3 nM) and DMSO, which was the solvent for the test compounds, as a negative control were diluted 100-fold with a fresh medium and were added at 4 μL per well. After culturing in the presence of 5% CO2 at 37° C. for 6 days, CellTiter Glo 2.0 (from Promega) was added at 20 μL per well. After stirring with a plate mixer (from FINEPCR) at room temperature for 1 hour, the luminescent signals were measured with ARVO X3 (from PerkinElmer).
With the signaling value in treatment with DMSO taken as 100% and with the signaling value in the medium alone without cells taken as 0%, the 50% inhibitory concentration values (IC50) were calculated by Sigmoid-Emax nonlinear regression analysis.

T1 sequence (P01116 1-188 isoform P01116-2 G12D): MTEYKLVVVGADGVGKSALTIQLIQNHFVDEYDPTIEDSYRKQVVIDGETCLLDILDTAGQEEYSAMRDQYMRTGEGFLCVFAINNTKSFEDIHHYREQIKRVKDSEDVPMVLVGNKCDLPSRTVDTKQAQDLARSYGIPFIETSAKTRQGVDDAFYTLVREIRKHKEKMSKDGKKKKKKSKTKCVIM

IC50 [1] [nM]	DC50 (KRAS G12D protein) [nM]	IC50 [2] [nM]	SMILES
5	47	5	Cc1ncoc1-c1ccc([C@H](CO)NC(=O)[C@@H]2C[C@@H](O)CN2C(=O)[C@H](C(C)C)n2cc(-c3ccc(COc4c(-c5c(C)c(F)cc6[nH]ncc56)c(C5CC5)cc5c(N(C)[C@H]6CCNC6)nc(OC[C@@H]6CCCO6)nc45)cc3)nn2)cc1 (atropisomer, axis not shown) [Example 28]
6	20	7	CCn1nccc1-c1ccc([C@H](CO)NC(=O)[C@@H]2C[C@@H](O)CN2C(=O)[C@H](C(C)C)n2cc(-c3ccc(COc4c(-c5c(C)c(F)cc6[nH]ncc56)c(C5CC5)cc5c(N(C)[C@H]6CCNC6)nc(OC[C@H]6CCCO6)nc45)cc3)nn2)cc1 (atropisomer, axis not shown) [Example 29]
10	121	12	Cc1c(F)cc2[nH]ncc2c1-c1c(C2CC2)cc2c(N(C)[C@H]3CCNC3)nc(OC[C@H]3CCCO3)nc2c1OCc1ccc(-c2cn([C@H](C(=O)N3C[C@H](O)C[C@H]3C(=O)N[C@@H](CO)c3ccc(-n4ccnc4C)cc3)C(C)C)nn2)cc1 (atropisomer, axis not shown) [Example 30]
20	59	18	Cc1ncoc1-c1ccc([C@H](CO)NC(=O)[C@@H]2C[C@@H](O)CN2C(=O)[C@H](C(C)C)n2cc(-c3ccc(COc4c(-c5c(C)c(F)cc6[nH]ncc56)c(C5CC5)cc5c(N(C)[C@H]6CCNC6)nc(OC[C@H]6CCCO6)nc45)cc3)nn2)cc1 (atropisomer, axis not shown) [Example 31]
37	51	24	CCn1nccc1-c1ccc([C@H](CO)NC(=O)[C@@H]2C[C@@H](O)CN2C(=O)[C@H](C(C)C)n2cc(-c3ccc(COc4c(-c5c(C)c(F)cc6[nH]ncc56)c(C5CC5)cc5c(N(C)[C@H]6CCNC6)nc(OC[C@H]6CCCO6)nc45)cc3)nn2)nc1 (atropisomer, axis not shown) [Example 32]
45	33	24	Cc1ncsc1-c1ccc([C@H](CO)NC(=O)[C@@H]2C[C@@H](O)CN2C(=O)[C@H](C(C)C)n2cc(-c3ccc(COc4c(-c5c(C)c(F)cc6[nH]ncc56)c(C5CC5)cc5c(N(C)[C@H]6CCNC6)nc(OCC(C)(C)F)nc45)cc3)nn2)cc1 (atropisomer, axis not shown) [Example 33]
21	53	13	Cc1ncsc1-c1ccc([C@H](CO)NC(=O)[C@@H]2C[C@@H](O)CN2C(=O)[C@H](C(C)C)n2cc(-c3ccc(COc4c(-c5c(C)c(F)cc6[nH]ncc56)c(C5CC5)cc5c(N(C)[C@H]6CCNC6)nc(OCC(C)C)nc45)cc3)nn2)cc1 (atropisomer, axis not shown) [Example 34]
12	63	9	Cc1ncsc1-c1ccc([C@H](CO)NC(=O)[C@@H]2C[C@@H](O)CN2C(=O)[C@H](C(C)C)n2cc(-c3ccc(COc4c(-c5c(C)c(F)cc6[nH]ncc56)c(C5CC5)cc5c(N(C)[C@H]6CCNC6)nc(OC[C@H](C)F)nc45)cc3)nn2)cc1 (atropisomer, axis not shown) [Example 35]
21	82	19	Cc1ncsc1-c1ccc([C@H](CO)NC(=O)[C@@H]2C[C@@H](O)CN2C(=O)[C@H](C(C)C)n2cc(-c3ccc(COc4c(-c5c(C)c(F)cc6[nH]ncc56)c(C5CC5)cc5c(N(C)[C@H]6CCNC6)nc(OCC(C)(F)F)nc45)cc3)nn2)cc1 (atropisomer, axis not shown) [Example 36]
32	58	32	Cc1ncsc1-c1ccc([C@H](CO)NC(=O)[C@@H]2C[C@@H](O)CN2C(=O)[C@H](C(C)C)n2cc(-c3ccc(COc4c(-c5c(C)c(F)cc6[nH]ncc56)c(C5CC5)cc5c(N(C)[C@H]6CCNC6)nc(OCCC(F)(F)F)nc45)cc3)nn2)cc1 (atropisomer, axis not shown) [Example 37]
36	25	36	Cc1ncsc1-c1ccc([C@H](CO)NC(=O)[C@@H]2C[C@@H](O)CN2C(=O)[C@H](C(C)C)n2cc(-c3ccc(COc4c(-c5c(C)c(F)cc6[nH]ncc56)c(C5CC5)cc5c(N(C)[C@H]6CCNC6)nc(OCCCF)nc45)cc3)nn2)cc1 (atropisomer, axis not shown) [Example 38]
